pKi: −log10 of the molar value. One block for each compound: values may come before it. The source made the active and inactive calls. The calls are words filed in the database; no cut-off is given here.
What was measured:
[1] = target: P2Y purinoceptor 2 (Homo sapiens) (UniProt P41231); test: Agonist activity at human P2Y2 receptor expressed in AD293 cells assessed as inositol-1-phosphate accumulation at 100 uM; assay type: functional, cell-based
[2] = species: Homo sapiens; test: Inhibition of alkaline phosphatase in human primary chondrocyte at 100 uM using p-nitrophenyl phosphate as substrate after 30 mins by […] relative to control
[3] = target: T1, Ectonucleotide pyrophosphatase/phosphodiesterase family member 3 (Homo sapiens) (UniProt O14638); test: Inhibition of human NPP3 expressed in COS7 cell membranes at 100 uM using pNP-TMP as substrate preincubated for 3 mins followed by substrate addition and measured after 15 mins relative to control
T1 sequence (whole entry): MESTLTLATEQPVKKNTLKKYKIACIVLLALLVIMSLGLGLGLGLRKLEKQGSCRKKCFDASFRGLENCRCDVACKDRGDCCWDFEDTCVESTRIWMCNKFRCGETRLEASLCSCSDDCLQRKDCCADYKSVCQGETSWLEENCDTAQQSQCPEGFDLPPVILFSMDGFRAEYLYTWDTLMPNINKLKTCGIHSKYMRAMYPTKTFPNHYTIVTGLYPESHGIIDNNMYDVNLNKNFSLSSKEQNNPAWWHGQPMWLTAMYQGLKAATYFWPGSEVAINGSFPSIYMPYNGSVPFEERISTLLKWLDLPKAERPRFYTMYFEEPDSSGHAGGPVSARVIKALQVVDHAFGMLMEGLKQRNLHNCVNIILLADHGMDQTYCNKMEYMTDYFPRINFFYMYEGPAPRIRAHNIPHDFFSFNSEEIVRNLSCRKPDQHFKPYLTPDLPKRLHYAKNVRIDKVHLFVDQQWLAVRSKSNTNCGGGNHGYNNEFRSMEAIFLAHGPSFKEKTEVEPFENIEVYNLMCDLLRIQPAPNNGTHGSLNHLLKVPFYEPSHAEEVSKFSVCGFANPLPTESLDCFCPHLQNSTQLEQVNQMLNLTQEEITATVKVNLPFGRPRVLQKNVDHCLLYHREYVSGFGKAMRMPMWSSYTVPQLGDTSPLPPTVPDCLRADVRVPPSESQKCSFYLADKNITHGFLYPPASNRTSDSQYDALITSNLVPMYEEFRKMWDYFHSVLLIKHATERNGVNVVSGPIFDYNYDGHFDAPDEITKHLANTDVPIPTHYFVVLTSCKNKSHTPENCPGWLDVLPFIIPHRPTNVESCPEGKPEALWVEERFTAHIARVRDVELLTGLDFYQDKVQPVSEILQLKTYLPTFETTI

[4] = target: T2, Ectonucleotide pyrophosphatase/phosphodiesterase family member 1 (Homo sapiens) (UniProt P22413); test: Inhibition of human NPP1 expressed in COS7 cell membranes at 100 uM using pNP-TMP as substrate preincubated for 3 mins followed by substrate addition and measured after 15 mins relative to control
T2 sequence (whole entry): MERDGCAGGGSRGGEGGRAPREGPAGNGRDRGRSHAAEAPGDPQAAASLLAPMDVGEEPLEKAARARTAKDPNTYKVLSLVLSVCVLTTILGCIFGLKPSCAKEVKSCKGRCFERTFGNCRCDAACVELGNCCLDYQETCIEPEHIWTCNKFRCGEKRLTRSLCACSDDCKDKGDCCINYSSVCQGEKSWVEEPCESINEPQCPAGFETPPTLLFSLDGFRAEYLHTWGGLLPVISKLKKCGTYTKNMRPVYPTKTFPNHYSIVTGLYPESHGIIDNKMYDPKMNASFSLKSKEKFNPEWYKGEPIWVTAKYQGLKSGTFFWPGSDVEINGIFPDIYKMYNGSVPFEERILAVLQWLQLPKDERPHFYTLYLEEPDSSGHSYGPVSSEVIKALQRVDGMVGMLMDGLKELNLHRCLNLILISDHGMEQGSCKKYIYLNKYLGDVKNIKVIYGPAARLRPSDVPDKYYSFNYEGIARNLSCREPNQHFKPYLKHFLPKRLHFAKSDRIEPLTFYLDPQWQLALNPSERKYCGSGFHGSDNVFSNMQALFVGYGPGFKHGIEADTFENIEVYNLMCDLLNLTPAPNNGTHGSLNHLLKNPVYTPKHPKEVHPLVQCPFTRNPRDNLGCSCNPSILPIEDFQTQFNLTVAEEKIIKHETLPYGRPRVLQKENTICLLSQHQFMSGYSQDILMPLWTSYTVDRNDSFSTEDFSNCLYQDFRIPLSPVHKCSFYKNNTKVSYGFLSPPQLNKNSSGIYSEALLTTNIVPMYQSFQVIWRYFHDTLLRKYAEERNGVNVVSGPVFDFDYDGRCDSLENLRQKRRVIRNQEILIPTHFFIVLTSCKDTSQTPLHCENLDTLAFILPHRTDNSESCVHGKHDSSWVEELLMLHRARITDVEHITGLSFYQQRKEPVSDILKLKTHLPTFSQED

[5] = target: T2, Ectonucleotide pyrophosphatase/phosphodiesterase family member 1 (Homo sapiens); test: Inhibition of NPP-1 in human articular chondrocytes at 100 uM using p-Nph-5'-TMP as substrate after 3 hrs by […] relative to control; assay type: cell-based
[6] = target: T3, Ectonucleotide pyrophosphatase/phosphodiesterase family member 1 (Homo sapiens, UniProt P22413); test: Inhibition of human NPP1 expressed in COS7 cell membranes using pNP-TMP as substrate preincubated for 3 mins followed by substrate addition and measured after 15 mins by Dixon plot analysis
T3 sequence (P22413 whole entry): T2 sequence (whole entry)

[7] = Cytotoxicity against human primary chondrocytes at 100 uM after 24 hrs by XTT assay
[8] = target: P2Y purinoceptor 2 (Homo sapiens) (UniProt P41231); test: Antagonist activity at human P2Y2 receptor expressed in AD293 cells assessed as inhibition of UTP-induced inositol-1-phosphate accumulation at 100 uM; assay type: functional, cell-based
[9] = target: P2Y purinoceptor 6 (Homo sapiens) (UniProt Q15077); test: Agonist activity at human P2Y6 receptor expressed in AD293 cells assessed as inositol-1-phosphate accumulation at 100 uM; assay type: functional, cell-based
[10] = target: P2Y purinoceptor 2 (Homo sapiens) (UniProt P41231); test: Agonist activity at human P2Y2 receptor expressed in AD293 cells assessed as induction of IP1 accumulation at 0.1 to 1 uM; assay type: functional, cell-based
[11] = target: T1, Ectonucleotide pyrophosphatase/phosphodiesterase family member 3 (Homo sapiens); test: Inhibition of human NPP3 expressed in COS7 cell membranes at 100 uM using pNP-TMP as substrate preincubated for 3 mins followed by substrate addition and measured after 15 mins
[12] = target: P2Y purinoceptor 2 (Homo sapiens) (UniProt P41231); test: Partial agonist activity at human P2Y2 receptor expressed in AD293 cells assessed as inositol-1-phosphate accumulation at 100 uM; assay type: functional, cell-based
[13] = target: T2, Ectonucleotide pyrophosphatase/phosphodiesterase family member 1 (Homo sapiens); test: Inhibition of human NPP1 expressed in COS7 cell membranes at 100 uM using pNP-TMP as substrate preincubated for 3 mins followed by substrate addition and measured after 15 mins

P2Y purinoceptor 2 (Homo sapiens), sequence (P41231 whole entry): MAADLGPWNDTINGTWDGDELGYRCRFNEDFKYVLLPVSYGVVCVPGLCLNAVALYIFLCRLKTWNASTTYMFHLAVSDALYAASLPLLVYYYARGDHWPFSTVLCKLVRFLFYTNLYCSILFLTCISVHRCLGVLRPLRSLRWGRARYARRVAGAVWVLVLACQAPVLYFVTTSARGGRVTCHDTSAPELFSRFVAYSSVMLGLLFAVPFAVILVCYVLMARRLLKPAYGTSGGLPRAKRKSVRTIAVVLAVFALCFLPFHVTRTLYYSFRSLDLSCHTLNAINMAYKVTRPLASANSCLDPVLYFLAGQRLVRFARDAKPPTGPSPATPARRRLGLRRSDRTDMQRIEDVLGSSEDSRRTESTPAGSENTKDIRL
P2Y purinoceptor 6 (Homo sapiens), sequence (Q15077 whole entry): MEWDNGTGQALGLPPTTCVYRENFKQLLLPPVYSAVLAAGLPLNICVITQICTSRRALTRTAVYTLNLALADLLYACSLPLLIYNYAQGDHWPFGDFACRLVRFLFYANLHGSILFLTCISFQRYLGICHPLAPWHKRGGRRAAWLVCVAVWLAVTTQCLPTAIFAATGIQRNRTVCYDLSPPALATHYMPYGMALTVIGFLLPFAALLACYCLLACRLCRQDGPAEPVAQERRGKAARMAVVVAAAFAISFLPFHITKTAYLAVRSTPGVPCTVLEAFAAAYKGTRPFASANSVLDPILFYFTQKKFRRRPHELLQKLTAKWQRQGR

Structure (SMILES): O=c1ccn(COCCOP(=S)(S)OP(=O)(O)C(Cl)(Cl)P(=O)(O)O)c(=O)[nH]1 (stereo unspecified)
- Activity [1]: inactive
- inhibition [2]: < 10%
- inhibition [3]: 21%
- inhibition [4]: 96%
- inhibition [5]: 96%
- pKi [6]: 6.14
- Activity [7]: Non-Toxic
- inhibition [8]: inactive
- Activity [9]: Active

Structure (SMILES): O=c1ccn(COCCO[PH](=O)O)c(=O)[nH]1
- Activity [10]: inactive
- inhibition [13]: inactive
- Activity [1]: inactive
- inhibition [11]: inactive
- inhibition [8]: inactive

Structure (SMILES): O=c1ccn(COCCOP(=O)(O)O)c(=O)[nH]1
- inhibition [13]: inactive
- Activity [1]: inactive
- inhibition [11]: inactive
- inhibition [8]: inactive

Structure (SMILES): O=c1ccn(COCCOP(=S)(S)OP(=O)(O)CP(=O)(O)O)c(=O)[nH]1 (stereo unspecified)
- Activity [1]: inactive
- inhibition [2]: < 10%
- inhibition [3]: 24%
- inhibition [4]: 96%
- pKi [6]: 6.03
- Activity [7]: Non-Toxic
- inhibition [8]: inactive
- Activity [9]: Active

Now from value to compound:

- Activity [10]: inactive
- inhibition [11]: Active
- inhibition [4]: 54%
- Activity [9]: Active
- Activity [12]: Active
Structure (SMILES): O=c1ccn(COCCOP(=O)(O)CP(=O)(O)O)c(=O)[nH]1

- Activity [10]: inactive
- Activity [1]: inactive
- inhibition [11]: Active
- inhibition [4]: 51%
- inhibition [8]: inactive
Structure (SMILES): O=c1ccn(COCCOP(=O)(O)C(Cl)(Cl)P(=O)(O)O)c(=O)[nH]1
